Experimental data as given in patent publication US20210395210A1, “INHIBITION OF BACTERIAL CHAPERONIN SYSTEMS” (THE TRUSTEES OF INDIANA UNIVERSITY, priority 2018, published 2021).
Where two headings read alike, the source gives them in different places.

What was measured:
[1] = biological target: T1, E. coli GroEL/ES (Escherichia coli, UniProt P0A6F5); assay: GroEL/ES-mediated dMDH refolding assay; assay type: biochemical; details: for inhibition in the GroEL/ES-mediated refolding assays (in words): dMDH and dRho refolding assays
T1 construct: made in house; host or cells: GroEL in E. coli DH5α; GroES in E. coli BL21 (DE3)
Procedure: Reagent preparation: For these assays, four primary reagent stocks were prepared: 1) GroEUES-dMDH or HSP60/10-dMDH binary complex stock; 2) ATP initiation stock; 3) EDTA quench stock; 4) MDH enzymatic assay stock. Denatured MDH (dMDH) was prepared by 2-fold dilution of MDH (5 mg/ml, soluble pig heart MDH from Roche, product #10127248001) with denaturant buffer (7 M guanidine-HCl, 200 mM Tris, pH 7.4, and 50 mM DTT). MDH was completely denatured by incubating at room temperature for 45 min. The binary complex solutions were prepared by slowly adding the dMDH stock to a stirring stock with GroEL (or HSP60) in folding buffer (50 mM Tris-HCl, pH 7.4, 50 mM KCl, 10 mM MgCl2, and 1 mM DTT), followed by addition of GroES (or HSP10). The binary complex stocks were prepared immediately prior to dispensing into the assay plates and had final protein concentrations of 83.3 nM GroEL (Mr 800 kDa) or HSP60 (Mr 400 kDa), 100 nM GroES or HSP10 (Mr 70 kDa), and 20 nM dMDH in folding buffer. For the ATP initiation stock, ATP solid was diluted into folding buffer to a final concentration of 2.5 mM. Quench solution contained 600 mM EDTA (pH 8.0). The MDH enzymatic assay stock consisted of 20 mM sodium mesoxalate and 2.4 mM NADH in reaction buffer (50 mM Tris-HCl, pH 7.4, 50 mM KCl, and 1 mM DTT).
Assay Protocol: First, 30 μL aliquots of the GroEL/ES-dMDH or HSP60/10-dMDH binary complex stocks were dispensed into clear, 384-well polystyrene plates. […] The chaperonin-mediated refolding cycles were initiated by addition of 20 μL of ATP stock (reagent concentrations during refolding cycle: 50 nM GroEL or HSP60, 60 nM GroES or HSP10, 12 nM dMDH, 1 mM ATP, and compounds of 100 μM to 46 nM, 3-fold dilution series). The refolding reactions were incubated at 37° C. […] Next, the assay was quenched by addition of 10 μL of the EDTA to final concentration of 100 mM. […] A340 nm measurements were recorded at 0.5 minutes (start point) and at successive time points until the amount of NADH consumed reached ˜90% (end point, generally between 20-35 minutes). The differences between the start and end point A340 values were used to calculate the % inhibition of the GroEL/ES or HSP60/10 machinery by the compounds. […] Results presented represent the averages of IC50 values obtained from at least quadriplicate (duplicate of duplicate) replicates.
After generating the compound library, we next employed a series of well-established biochemical assays to evaluate compound inhibitory effects against the GroEUES chaperonin system (See FIG. 6 and FIG. 7). We used E. coli GroEUES as the surrogate chaperonin system for refolding of the reporter enzymes malate dehydrogenase (MDH) and rhodanese (Rho). Briefly, binary complexes are formed between GroEL and denatured MDH or Rho, which are then refolded to their native states upon addition of ATP and the GroES co-chaperonin. Enzymatic activities of refolded native MDH or Rho act as coupled reporters of GroEUES refolding functions since in the presence of chaperonin inhibitors, no functional reporter enzymes are generated.

[2] = system: THLE-3 liver cells; assay: Liver cell viability assay (Alamar Blue); details: read-out: Human Cell Viability CC50, Liver (THLE-3); THLE-3 liver cells, Alamar Blue, 48 h
Procedure: (§1) HEK 293 cells were maintained in MEM medium (Corning Cellgro, 10-009 CV) supplemented with 10% FBS (Sigma, F2242). […] Cells at 80% confluence were harvested and diluted in growth medium, then 45 μL of the THLE-3 cells (1,500 cells/well) or HEK 293 cells (1,500 cells/well) were dispensed per well, and plates were sealed with “Breathe Easy” oxygen permeable membranes (Diversified Biotech) and incubated at 37° C., 5% CO2, for 24 h.

[3] = Kidney cell viability assay (Alamar Blue); details: human
Procedure: as §1

[4] = system: S. aureus Rosenbach (ATCC 25923) biofilm formation; assay: S. aureus biofilm prevention assay (crystal violet); assay type: cell-based; details: Staphylococcus aureus, read-out: S. aureus Proliferation & Biofilm Assay EC50 Preventing Biofilm Formation
Procedure: The biofilm prevention assay was carried out with S. aureus Rosenbach (ATCC 25923) using a quantitative crystal violet-based adherence assay on 96-well plates. S. aureus (ATCC 25923) bacteria were streaked onto a Tryptic Soy Broth (TSB) agar plate and grown overnight at 37° C. A fresh aliquot of TSB media was inoculated with a single bacterial colony and the cultures were grown overnight at 37° C. with shaking (250 rpm). The overnight culture was then sub-cultured (1:5 dilution) into a fresh aliquot of TSB media supplemented to a final concentration of 0.5% glucose and grown at 37° C. for 1 h with shaking, then diluted into fresh TSB media supplemented with 0.5% glucose to achieve a final OD600 reading of 0.01. Aliquots of the diluted culture (100 μL) were dispensed to 96 well polystyrene plates along with addition of 1 μL test compounds in DMSO. The inhibitor concentration range during the assay was 100 μM to 46 nM (3-fold dilution series). A second set of baseline control plates were prepared analogously, but without any bacteria added, to correct for possible compound absorbance and/or precipitation. Plates were sealed with “Breathe Easy” oxygen permeable membranes (Diversified Biotech) and left to incubate at 37° C. without shaking (stagnant assay) until the biofilm was formed. After 24 h, the planktonic cultures were removed and the plates were washed gently 2-3 times with 200 μl of water. Next, the plates were air dried and the adherent biofilms were stained with 150 μL of crystal violet solution (2.3% crystal violet in 20% Ethanol, Sigma Aldrich #HT90132) for 15 minutes at R.T. The unbound crystal violet stain was removed, then plates were gently washed again with running water and air dried for 10 min. Quantitative assessment of biofilm formation was obtained by adding 100 μL of developer solution (4:1:5 mixture of MeOH:AcOH:H2O) per well. Well absorbance was then read at 595 nm using a Molecular Devices SpectraMax Plus384 microplate reader. […] Results presented represent the averages of EC50 values obtained from at least triplicate experiments.
Establishing biofilms is another effective mechanism by which S. aureus can evade the effects of many current antibiotics, including vancomycin. […] Briefly, test compounds (1, 2, 5, 8, 11, and vancomycin) were incubated with S. aureus bacteria in media supplemented with 0.5% glucose (to support biofilm formation) for 24 h at 37° C. After 24 h, the supernatant was removed, the wells were gently washed, and the biofilm that had formed on the well surfaces were stained with crystal-violet and quantified by UV-Vis spectroscopy.

[5] = log of IC50 (μM scale), with standard deviation
[6] = read-out: Biochemical Assay IC50 GroEL/ES-dMDH refolding

T1 sequence (P0A6F5 2-548): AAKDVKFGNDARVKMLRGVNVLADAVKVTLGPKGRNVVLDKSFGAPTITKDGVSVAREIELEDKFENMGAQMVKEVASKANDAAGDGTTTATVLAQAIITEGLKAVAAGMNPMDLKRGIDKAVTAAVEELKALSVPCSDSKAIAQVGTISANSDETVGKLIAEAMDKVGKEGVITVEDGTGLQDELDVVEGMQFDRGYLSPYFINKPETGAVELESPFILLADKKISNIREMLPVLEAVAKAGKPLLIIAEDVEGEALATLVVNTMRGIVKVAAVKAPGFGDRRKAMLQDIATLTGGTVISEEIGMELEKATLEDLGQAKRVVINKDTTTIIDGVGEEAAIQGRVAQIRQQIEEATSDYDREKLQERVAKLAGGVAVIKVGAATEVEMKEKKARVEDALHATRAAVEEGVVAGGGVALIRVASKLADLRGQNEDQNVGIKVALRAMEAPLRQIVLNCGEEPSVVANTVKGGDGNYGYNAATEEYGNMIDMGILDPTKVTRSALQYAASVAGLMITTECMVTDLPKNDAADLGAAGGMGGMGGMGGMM

Compound | log(IC50) GroEL/ES-dMDH Refolding [1, 5] | IC50 [1, 6] | CC50 [2] | CC50 at 48 h [3] | IC50 [1] | other results
CC1(C)S[C@@H]2[C@H](NC(=O)[C@H](N)c3ccccc3)C(=O)N2[C@H]1C(=O)O [Ampicillin, ampicillin, reference compound] | >2 | > 100 µM | > 100 µM | – | – | CC50 at 48 h ([3]; HEK 293 kidney cells): > 100 µM
O=C(Nc1ccc(Sc2nc3ccccc3s2)c(Cl)c1)c1cc(Br)cc(Br)c1O [Compound 1, N-(4-(Benzo[d]thiazol-2-ylthio)-3-chlorophenyl)-3,5-dibromo-2-hydroxybenzamide] | 0.23 ± 0.28 | 1.7 µM | – | – | – | EC50 ([4]; ATCC25923, 24 h): 0.72 µM
O=C(Nc1ccc(Sc2nc3ccccc3s2)c(Cl)c1)c1cccc(Br)c1O [Compound 2, N-(4-(Benzo[d]thiazol-2-ylthio)-3-chlorophenyl)-3-bromo-2-hydroxybenzamide] | 0.98 ± 0.23 | 9.5 µM | – | – | – | inhibition in the GroEL/ES-mediated refolding assays (in words) [1]: moderate to potent inhibitors; EC50 ([4]; ATCC25923, 24 h): 1 µM
O=C(Nc1ccc(Sc2nc3ccccc3s2)cc1)c1cc(Br)cc(Br)c1O [Compound 5, N-(4-(Benzo[d]thiazol-2-ylthio)phenyl)-3,5-dibromo-2-hydroxybenzamide] | 0.43 ± 0.19 | 2.7 µM | – | – | – | EC50 ([4]; ATCC25923, 24 h): 0.54 µM
O=C(Nc1ccc(Sc2nc3ccccc3s2)cc1)c1ccccc1O [Compound 8, N-(4-(Benzo[d]thiazol-2-ylthio)phenyl)-2-hydroxybenzamide] | 1.60 ± 0.26 | 40 µM | – | – | – | selectivity for E. coli GroEL/ES over human HSP60/10 (in words) ([1]; GroEL/ES-dMDH vs HSP60/10-dMDH IC50): selectively inhibit E. coli GroEUES over human HSP60/10; EC50 ([4]; ATCC25923, 24 h, media with 0.5% glucose, crystal violet A595): 0.91 µM
O=C(Nc1cccc(Cl)c1)c1cc(Br)cc(Br)c1O [Compound 9, 3,5-Dibromo-N-(3-chlorophenyl)-2-hydroxybenzamide] | 1.38 ± 0.15 | 24 µM | 9.2 µM | 18.2 µM | – | –
O=C(Nc1cccc(Cl)c1)c1cc(Br)ccc1O [Compound 11, 5-Bromo-N-(3-chlorophenyl)-2-hydroxybenzamide] | >2 | – | – | – | > 100 µM | EC50 ([4]; ATCC25923, 24 h): 0.44 µM
O=C(Nc1ccccc1)c1cc(Br)cc(Br)c1O [Compound 13, 3,5-Dibromo-2-hydroxy-N-phenylbenzamide] | 1.79 ± 0.10 | 61 µM | 25 µM | 33.9 µM | – | –
O=C(Nc1ccccc1)c1ccccc1O [Compound 16, 2-Hydroxy-N-phenylbenzamide] | >2 | > 100 µM | 68 µM | > 100 µM | – | –
COc1c(Br)cccc1C(=O)Nc1cccc(Cl)c1 [Compound 38] | >2 | – | – | > 100 µM | > 100 µM | –
COc1ccc(Br)cc1C(=O)Nc1cccc(Cl)c1 [Compound 39, 5-Bromo-N-(3-chlorophenyl)-2-methoxybenzamide] | >2 | – | – | > 100 µM | > 100 µM | –
COc1ccccc1C(=O)Nc1cccc(Cl)c1 [Compound 40, N-(3-Chlorophenyl)-2-methoxybenzamide] | >2 | – | – | > 100 µM | > 100 µM | –
COc1c(Br)cc(Br)cc1C(=O)Nc1ccccc1 [Compound 41, 3,5-Dibromo-2-methoxy-N-phenylbenzamide] | >2 | – | – | > 100 µM | > 100 µM | –
COc1c(Br)cccc1C(=O)Nc1ccccc1 [Compound 42, 3-Bromo-2-methoxy-N-phenylbenzamide] | >2 | – | – | > 100 µM | > 100 µM | –
COc1ccc(Br)cc1C(=O)Nc1ccccc1 [Compound 43, 5-Bromo-2-methoxy-N-phenylbenzamide] | >2 | – | – | > 100 µM | > 100 µM | –
COc1ccccc1C(=O)Nc1ccccc1 [Compound 44, 2-Methoxy-N-phenylbenzamide] | >2 | – | – | > 100 µM | > 100 µM | –
O=C(Nc1ccc(Oc2ccc(Cl)cc2)c(Cl)c1)c1cc(I)cc(I)c1O [Rafoxanide, rafoxanide, reference compound] | – | 4.3 µM | 24 µM | > 100 µM | – | inhibition in the GroEL/ES-mediated refolding assays (in words) [1]: potent GroEUES inhibitors; IC50 ([1]; log of IC50 (μM scale), with standard deviation, read-out: log(IC50) GroEL/ES-dMDH Refolding (converted)): 4.37 µM
CN[C@H](CC(C)C)C(=O)N[C@H]1C(=O)N[C@@H](CC(N)=O)C(=O)N[C@H]2C(=O)N[C@H]3C(=O)N[C@H](C(=O)N[C@H](C(=O)O)c4cc(O)cc(O)c4-c4cc3ccc4O)[C@H](O)c3ccc(c(Cl)c3)Oc3cc2cc(c3O[C@@H]2O[C@H](CO)[C@@H](O)[C@H](O)[C@H]2O[C@H]2C[C@](C)(N)[C@H](O)[C@H](C)O2)Oc2ccc(cc2Cl)[C@H]1O [Vancomycin, vancomycin, reference compound] | >2 | – | > 100 µM | > 100 µM | > 100 µM | EC50 ([4]; ATCC25923, 24 h): 0.54 µM
